# Data as given in US9132179B2, “Compositions for reducing bacterial carriage and CNS invasion and methods of using same” (The UAB Research Foundation, priority 2003, dated 2015).
# Columns and labels:
# TIGR4 strain = assay: Attachment of TIGR4 strain to ganglioside-coated ELISA plates, short-term incubation; assay type: binding, S. pneumoniae
# Procedure: The ability of the TIGR4, and its nanA and nanB mutants to bind to specific gangliosides is measured. The gangliosides used include mixed gangliosides, asialo-GM1, GM1, GD1a, GD1b, GT1 (Calbiochem) and the GM3 ganglioside (Sigma). The GM3 ganglioside lacks the terminal or internal GalNAcβ1-4Gal sequence involved in pneumococcal binding and is used as a negative control. These mixed, mono-, di- or tri-sialic acid containing gangliosides bind readily to ELISA plates. […] Using ganglioside-coated plates, the ability to attach to these plates by wildtype TIGR4 strain, the stable opaque and transparent phase variants of the TIGR4 strain, the nanA, nanB, and nanA/nanB mutant strains is compared. These analyses include short-term incubation (1 hr) and extended incubations (24 hrs) on ganglioside-coated plates. Attached pneumococci are removed from the ganglioside plates by short incubation (10-15 min.) in Todd Hewitt medium containing 0.5% yeast extract followed by repeated pipetting and plating the released bacteria on blood agar plates. Alternatively 41° C. Todd Hewitt broth agar containing 0.5% yeast extract is poured on top of the attached pneumococci and the colonies are counted through the bottom of the plate. Controls include plates with no pneumococci and plates with no gangliosides but with pneumococci.
# [1] = GM1-binding peptide; cited from earlier work
# [2] = system: S. pneumoniae strain EF3030; assay: GLS preincubation of S. pneumoniae strain EF3030 before nasal application; CFU in tissues; assay type: in vivo; settings: EF3030 preincubated with GLS, xid mice, four days after nasal application
# Procedure: Aliquots (3×10^7 CFUs) of S. pneumoniae were incubated for 30 minutes with 20 μg asialo-GM1 (a-GM1) or 125 μg of mixed GLSs (MG) prior to nasal application. The ON/E, OBs, brain and NW, NALT and lungs were collected four days later and analyzed for numbers of S. pneumoniae. The 0 value on the Y-axis represents the absence of detectable CFUs. Indicated are the mean+one SE of 5 mice and the P-values were obtained following statistical analysis. The data are representative of two separate experiments.
# The blood was collected into a heparinized capillary tube from the retroorbital plexus. Mice were disinfected with 70% ethanol prior to collection of nasal wash (NW), kidney, spleen, and lungs. […]
# Eight serial, three-fold dilutions were made of tissues and body fluids in sterile Ringer's solution and plated on blood agar plates containing 4 μg/ml of gentamicin sulfate. […] The results were expressed as CFUs/organ, per NW or per ml of blood.
# To block GLS binding sites, 3×10^7 CFU of S. pneumoniae strain EF3030 were incubated for 30 min on ice with either 20 μg asialo-GM1 from human brain or 125 μg of mixed GLSs (18% GM1, 55% GD1a, 15% GD1b, 10% GT1b, 2% other GLSs) from bovine brain (Calbiochem-Novabiochem Corporation, Inc., La Jolla, Calif.). […] Tissues were analyzed for CFUs four days later.
Substance,binding of pneumococci to coated plates (TIGR4 strain),IC50 [1] [nM],reduction of colonization in CNS ([2]; CNS tissue) [fold],reduction of colonization in lungs ([2]; lungs) [fold]
GM1,not,–,–,–
VWRLLAPPFSNRLLP,–,1000,–,–
GM3 [GM-3],not,–,–,–
asialo-GM1,bind and attachment,–,25,63
